Test results reported in US20100056508A1, “AMINE DERIVATIVES AND THEIR USE IN BETA-2-ADRENORECEPTOR MEDIATED DISEASES” (ASTRAZENECA AB, priority 2006, published 2010).

Tests used:
[1] = biological target: T1, recombinant human adrenergic beta 1 receptors (Homo sapiens, UniProt P08588); assay: Adrenergic β1 selectivity assay, [125I]-Iodocyanopindolol binding to membranes; conditions: inhibition of [125I]-Iodocyanopindolol binding, read-out: β1 bind pIC50 (converted)
T1 construct: purchased Euroscreen
In short: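 Recombinant human β1 membranes in HEPES buffer pH 7.4 with 120 mM NaCl were incubated 2 hours at room temperature with 0.036 nM [^125I]-Iodocyanopindolol. Nonspecific binding defined by 10 μM propranolol; bound radioactivity counted after filtration. pIC50 from four-parameter logistic fit.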

Adrenergic β2 = biological target: T2, Adrenergic β2 (Homo sapiens, UniProt P07550); assay: Adrenergic β2 mediated cAMP production in H292 cells (AlphaScreen cAMP detection); format: cell-based; parameters: key to β2 Int Act: fraction of formoterol maximum activity (formoterol = 1); conditions: for β2 Int Act: Intrinsic Activity as a fraction relative to the maximum activity determined for formoterol; for EC50: cAMP production, 60 minutes at room temperature, 300 μM rolipram, read-out: β2 pEC50 (converted)
T2 construct: Adherent H292 cells were removed from tissue culture flasks; endogenous in cells; host or cells: H292 cells
In short: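 H292 cells pre-treated 10 min with rolipram (300 μM final), then given agonist for 60 min at room temperature in HBSS/10 mM HEPES pH 7.4, 1.6% DMSO final. Lysate cAMP measured by AlphaScreen against a cAMP standard curve. Four-parameter fit gives pEC50; intrinsic activity relative to formoterol maximum.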

[2] = biological target: T3, recombinant human Dopamine Subtype D2s receptors (Homo sapiens, UniProt P14416); assay: Dopamine D2 selectivity assay, [3H]-spiperone binding to membranes; conditions: inhibition of [3H]-spiperone binding, read-out: D2 bind pIC50 (converted)
T3 construct: purchased Perkin Elmer
In short: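 Human D2s receptor membranes incubated 2 h at room temperature with 0.16 nM [3H]-spiperone and test compound in HEPES buffer pH 7.4 (120 mM NaCl, 0.1% gelatin). Non-specific binding defined with 10 μM haloperidol; filter-bound radioactivity counted, pIC50 from four-parameter logistic fit.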

T2 sequence (P07550 whole entry): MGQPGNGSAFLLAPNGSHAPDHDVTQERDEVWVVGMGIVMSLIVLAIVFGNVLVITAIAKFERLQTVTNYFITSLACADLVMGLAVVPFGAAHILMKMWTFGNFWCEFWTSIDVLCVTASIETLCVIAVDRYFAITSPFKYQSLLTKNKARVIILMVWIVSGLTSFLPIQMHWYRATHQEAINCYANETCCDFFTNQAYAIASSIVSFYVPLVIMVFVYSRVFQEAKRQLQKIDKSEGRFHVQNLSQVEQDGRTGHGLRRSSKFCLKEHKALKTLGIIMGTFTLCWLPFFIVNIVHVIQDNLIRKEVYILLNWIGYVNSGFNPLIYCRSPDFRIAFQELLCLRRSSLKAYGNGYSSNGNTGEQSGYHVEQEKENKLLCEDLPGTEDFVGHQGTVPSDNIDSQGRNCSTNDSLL
T1 sequence (P08588 whole entry): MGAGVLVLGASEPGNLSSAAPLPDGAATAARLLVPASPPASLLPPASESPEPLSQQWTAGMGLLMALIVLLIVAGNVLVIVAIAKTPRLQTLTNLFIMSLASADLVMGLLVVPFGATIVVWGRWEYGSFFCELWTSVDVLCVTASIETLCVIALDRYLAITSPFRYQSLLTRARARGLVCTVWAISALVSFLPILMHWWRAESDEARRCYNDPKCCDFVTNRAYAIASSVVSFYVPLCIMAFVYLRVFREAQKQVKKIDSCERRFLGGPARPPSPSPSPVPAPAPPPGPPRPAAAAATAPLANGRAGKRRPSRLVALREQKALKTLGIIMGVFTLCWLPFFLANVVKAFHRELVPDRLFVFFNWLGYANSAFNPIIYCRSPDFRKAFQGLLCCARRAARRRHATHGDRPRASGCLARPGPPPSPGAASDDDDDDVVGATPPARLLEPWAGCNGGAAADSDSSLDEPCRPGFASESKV
T3 sequence (P14416 1-414 isoform P14416-2): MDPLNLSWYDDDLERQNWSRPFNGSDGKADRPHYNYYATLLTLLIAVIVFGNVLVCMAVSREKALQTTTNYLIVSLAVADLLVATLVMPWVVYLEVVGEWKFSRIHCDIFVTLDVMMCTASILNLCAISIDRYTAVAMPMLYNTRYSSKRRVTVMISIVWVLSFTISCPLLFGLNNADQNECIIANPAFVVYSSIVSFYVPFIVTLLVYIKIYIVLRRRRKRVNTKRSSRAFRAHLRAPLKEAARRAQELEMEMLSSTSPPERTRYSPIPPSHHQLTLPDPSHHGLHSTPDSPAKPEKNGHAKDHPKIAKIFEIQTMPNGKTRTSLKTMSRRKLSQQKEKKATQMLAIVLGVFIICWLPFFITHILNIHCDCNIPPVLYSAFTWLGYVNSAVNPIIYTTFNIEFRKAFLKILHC

Question: With `O=C1COc2c(CCNCCN(C(=O)CCNCCc3ccccc3)C3CCCCCC3)ccc(O)c2N1` [Example 24, N-Cycloheptyl-N-(2-(2-(5-hydroxy-3-oxo-3,4-dihydro-2H-benzo[b][1,4]oxazin-8-yl)ethylamino)ethyl)-3-(phenethylamino)propanamide bis(trifluoroacetate)] as the molecule, how does the IC50 [1] read?
Answer: Its IC50 is 631 nM.

Question: And the “β2 Int Act” value (Adrenergic β2)?
Answer: The value was 0.85.

Question: What about the EC50 (Adrenergic β2) of the same molecule?
Answer: The EC50 was 1 nM.

Question: And the IC50 [2]?
Answer: The IC50 was 158 nM.

Question: With `O=C1COc2c(CCNCCN(C(=O)CCNCCc3ccc(Cl)cc3)C3CCCCCC3)ccc(O)c2N1` [Example 63, 3-(4-Chlorophenethylamino)-N-cycloheptyl-N-(2-(2-(5-hydroxy-3-oxo-3,4-dihydro-2H-benzo[b][1,4]oxazin-8-yl)ethylamino)ethyl)propanamide bis(trifluoroacetate)] as the molecule, how does the IC50 [1] read?
Answer: Its IC50 is 251 nM.

Question: What about the “β2 Int Act” value (Adrenergic β2) of the same molecule?
Answer: Its value is 0.79.

Question: What about the EC50 (Adrenergic β2) of the same molecule?
Answer: Its EC50 is 2 nM.

Question: And the IC50 [2]?
Answer: The IC50 was 39.8 nM.
